≈ marks a conversion by molar mass, not a printed value.
Tests used:
[1] = Solubility in FaSSIF (Fasted State Simulated Intestinal Fluid); format: physicochemical; settings: kinetic from dmso stock, FaSSIF pH 6.5, 25° C.
Procedure, shortened: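 Apparent solubility measured in FaSSIF at pH 6.5 from a 10 mM DMSO stock, shaken at 25° C, 1100 RPM for 2 h and then filtered. Filtrate quantified by LC/MS/MS against a 3 μM standard with internal standard, corrected by dilution factor.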

HCC1806 Ub-PCNA (USP1) = assay: USP1 Western Blot Protocol (HCC1806 Ub-PCNA); format: cell-based; settings: Homo sapiens, HCC1806 cells, 4 hours
Procedure, shortened: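 HCC1806 cells seeded overnight, then treated 4 h at 37 °C with a 5-point, 4-fold dilution series (0.1% DMSO). Lysates immunoblotted for Ub-PCNA with fluorescent detection; inhibition expressed as % vehicle from Ub-PCNA upregulation, IC50 by four-parameter logistic fit.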

| solubility at 2 h [1] | IC50 (HCC1806 Ub-PCNA (USP1)) | SMILES |
| --- | --- | --- |
| ≥ 100 µM | < 10 nM | COc1cc(Cn2c(=O)ccc3c(C)nc(-c4c(OC)ncnc4C4CC4)nc32)ccc1-c1nc(C(F)(F)F)cn1C1CC1 [Compound I-152, 8-({4-[1-cyclopropyl-4-(trifluoromethyl)imidazo]-2-yl]-3-methoxyphenylmethyl)-2-(4-cyclopropyl-6-methoxypyrimidin-5-yl)-4-methylpyrido[2,3-d]pyrimidin-7-one] |
| < 10 µM | 10 to 100 nM | COc1ncnc(C2CC2)c1-c1ncc2ccc(=O)n(Cc3ccc(-c4cccc(C(F)(F)F)n4)cc3)c2n1 [Compound I-36, 2-(4-cyclopropyl-6-methoxypyrimidin-5-yl)-8-({4-[6-(trifluoromethyl)pyridin-2-yl]phenyl}methyl)pyrido[2,3-d]pyrimidin-7-one] |
| 10 to 100 µM (≈ 6.55 to 65.5 µg/mL) | < 10 nM | COc1ncnc(C2CC2)c1-c1ncc2cc(-c3c(C)noc3C)c(=O)n(Cc3ccc(-c4nc(C(F)(F)F)cn4C4CC4)cc3)c2n1 [Compound I-155] |
| < 10 µM | 10 to 100 nM | COc1ncnc(C2CC2)c1-c1ncc2ccc(=O)n(Cc3ccc(-c4nc(C(F)(F)F)cn4C(C)C)cc3)c2c1F [Compound I-27, 7-(4-cyclopropyl-6-methoxypyrimidin-5-yl)-8-fluoro-1-({4-[1-isopropyl-4-(trifluoromethyl)imidazol-2-yl]phenyl}methyl)-1,6-naphthyridin-2-one] |
| ≥ 100 µM | < 10 nM | COc1ncnc(C2CC2)c1-c1nc(C)c2cc(C3CCN(C)CC3)c(=O)n(Cc3ccc(-c4nc(C(F)(F)F)cn4C4CC4)cc3)c2n1 [Compound I-157, 8-({4-[1-Cyclopropyl-4-(Trifluoromethyl)Imidazol-2-Yl]Phenyl}Methyl)-2-(4-Cyclopropyl-6-Methoxypyrimidin-5-Yl)-4-Methyl-6-(1-Methylpiperidin-4-Yl)Pyrido[2,3-d]Pyrimidin-7-One] |
| ≥ 100 µM | 10 to 100 nM | COc1ncnc(C2CC2)c1-c1ncc2cc(-c3ncnn3C)c(=O)n(Cc3ccc(-c4nc(C(F)(F)F)cn4C4CC4)cc3)c2n1 [Compound I-156] |
| 10 to 100 µM (≈ 6.22 to 62.2 µg/mL) | < 10 nM | COc1cc(Cn2c(=O)ccc3c(C)nc(-c4c(OC)ncnc4C4CC4)nc32)cc(F)c1-c1nc(C(F)(F)F)cn1C1CC1 [Compound I-163] |
| 10 to 100 µM (≈ 6.43 to 64.3 µg/mL) | < 10 nM | COc1ncnc(C2CC2)c1-c1ncc2cc(-c3ncnn3C)c(=O)n(Cc3ccc(-c4nc(C(F)(F)F)cn4C(C)C)cc3)c2n1 [Compound I-168, 2-(4-Cyclopropyl-6-Methoxypyrimidin-5-Yl)-8-({4-[1-Isopropyl-4-(Trifluoromethyl)Imidazol-2-Yl]Phenyl}Methyl)-6-(2-Methyl-1,2,4-Triazol-3-Yl)Pyrido[2,3-d]Pyrimidin-7-One] |
| 10 to 100 µM (≈ 6.41 to 64.1 µg/mL) | < 10 nM | COc1ncnc(C2CC2)c1-c1ncc2cc(-c3cnn(C)n3)c(=O)n(Cc3ccc(-c4nc(C(F)(F)F)cn4C4CC4)cc3)c2n1 [Compound I-151] |
| 10 to 100 µM (≈ 6.55 to 65.5 µg/mL) | 10 to 100 nM | COc1ncnc(C2CC2)c1-c1nc(C)c2cc(-c3ncnn3C)c(=O)n(Cc3ccc(-c4nc(C(F)(F)F)cn4C4CC4)cc3)c2n1 [Compound I-167, 8-({4-[1-Cyclopropyl-4-(Trifluoromethyl)Imidazol-2-Yl]Phenyl}Methyl)-2-(4-Cyclopropyl-6-Methoxypyrimidin-5-Yl)-4-Methyl-6-(2-Methyl-1,2,4-Triazol-3-Yl)Pyrido[2,3-d]Pyrimidin-7-One] |
| ≥ 100 µM | < 10 nM | COc1ncnc(C2CC2)c1-c1ncc2cc(-c3ncn(C)n3)c(=O)n(Cc3ccc(-c4nc(C(F)(F)F)cn4C4CC4)cc3)c2n1 [Compound I-153, 8-({4-[1-cyclopropyl-4-(trifluoromethyl)imidazo]-2-yl]phenylmethyl)-2-(4-cyclopropyl-6-methoxypyrimidin-5-yl)-6-(1-methyl-1,2,4-triazol-3-yl)pyrido[2,3-d]pyrimidin-7-one] |
| ≥ 100 µM | < 10 nM | COc1ncnc(C2CC2)c1-c1nc(C)c2cc(-c3cnn(C)c3)c(=O)n(Cc3ccc(-c4nc(C(F)(F)F)cn4C4CC4)cc3)c2n1 [Compound I-148, 8-({4-[1-Cyclopropyl-4-(Trifluoromethyl)Imidazol-2-Yl]Phenyl}Methyl)-2-(4-Cyclopropyl-6-Methoxypyrimidin-5-Yl)-4-Methyl-6-(1-Methylpyrazol-4-Yl)Pyrido[2,3-d]Pyrimidin-7-One] |
| 10 to 100 µM (≈ 6.41 to 64.1 µg/mL) | < 10 nM | COc1ncnc(C2CC2)c1-c1ncc2cc(-c3cn(C)nn3)c(=O)n(Cc3ccc(-c4nc(C(F)(F)F)cn4C4CC4)cc3)c2n1 [Compound I-150] |
